Results: US6420600B1, “Phenylalaninol derivatives” (Hoffman-La Roche Inc., priority 1999, dated 2002)

Experiments:
[1] = tested on: Adult male cynomolgus monkeys; assay: Acute airway inflammation in the atopic primate (A. suum antigen challenge, bronchoalveolar lavage cell counts); format: in vivo, Macaca fascicularis; conditions: p.o., 2 hours prior to A. suum antigen challenge; lavage at 24 hour after challenge; relative to vehicle treated control animals
Experimental: Acute airway inflammation in the atopic primate.
Airway inflammation in the monkey was determined using a modification of the protocol described by Turner et al. (Turner et al., 1994). Adult male cynomolgus monkeys (Macaca fascicularis, Hazelton Labs, Denver, Pa.) weighing between 3.6-5.8 kg were used in these studies.
On the day of each experiment the animals were anesthetized with ketamine hydrochloride, 12 mg/kg, and xylazine, 0.5 mg/kg, intubated with a cuffed endotracheal tube (3 mm, Mallinckrodt Medical, St. Louis, Mo.), then seated in an upright position in a specially designed Plexiglass chair (Plas-Labs, Lansing, Mich.). The endotracheal tube was connected to a heated Fleisch pneumotachograph. Airflow was measured via a Validyn differential pressure transducer (DP 45-24) that was attached to the pneumotachograph. Transpulmonary pressure was measured via a second Validyne transducer (DP 45-24) connected between a sidearm of the tracheal cannula and a 18-gauge intrapleural needle inserted in the intercostal space located below the left nipple. […]
Airway inflammation was induced by exposing the animal to an aerosol of A. Suum extract for 60 sec. […] Airway inflammation was assessed by inserting a pediatric bronchoscope into the airway lumen down to about the 4 or 5th generation bronchi and gently lavaging with 3 ×2 ml aliquots of sterile Hanks Balanced Salt Solution. […]

melting point: 198 to 200 °C
Compound: Cc1cccc(Cl)c1C(=O)N[C@H](CO)Cc1ccc(NC(=O)c2c(Cl)cccc2Cl)cc1 [Example 1, 4-[[(2,6-dichlorophenyl)carbonyl]amino]-N-[(2-chloro-6-methylphenyl)carbonyl]-L-phenylalaninol]
number of inflammatory cells present in the lavage fluid [1]: significant decrease
percent of inflammatory cells present in the lavage fluid [1]: significant decrease
